For one test, the target named is T1, human PPARγ2 (Homo sapiens, UniProt P37231).
T1 construct: the amino acids 182 to 505 of human PPARγ2; expressed in transfected cells; host or cells: COS7 cells (African green monkey kidney)
T1 sequence (P37231 182-505): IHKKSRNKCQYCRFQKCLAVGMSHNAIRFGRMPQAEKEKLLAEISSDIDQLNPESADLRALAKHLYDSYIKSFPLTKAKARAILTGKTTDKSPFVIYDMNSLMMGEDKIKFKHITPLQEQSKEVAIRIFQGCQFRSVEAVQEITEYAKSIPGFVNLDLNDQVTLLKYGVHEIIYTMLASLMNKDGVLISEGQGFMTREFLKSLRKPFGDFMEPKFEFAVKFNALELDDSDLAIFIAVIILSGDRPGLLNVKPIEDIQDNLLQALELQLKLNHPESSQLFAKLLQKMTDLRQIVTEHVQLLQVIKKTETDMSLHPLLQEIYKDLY
The test can be described thus: PPARγ activation activity, Gal4-PPARγ2 LBD luciferase transfection assay using COS7 cells. It counts as cell-based. Particulars: for EC50: COS7 cells, 16 hours, luciferase activity relative to rosiglitazone = 100%, read-out: EC50; for Emax: COS-7, 16 h, maximum activity strength relative to the maximum activity of rosiglitazone, read-out: % MAX vs Rosiglitazone. On the procedure:
The agonistic activity of the compounds of the invention on PPARγ was measured based on the transfection assay using COS7 cells (DS Pharma Biomedical Co., Ltd., Osaka, Japan), which are the cell line derived from the kidney of the African green monkey. COS7 cells were cultured under 5% CO2 concentration, and DMEM medium containing 10% fetal bovine serum, glutamic acid, and antibiotics was used as a medium.
As an expression vector, a chimera in which DNA binding domain of Gal4, which is a yeast transcription factor, and ligand binding domain of human PPARγ2 are fused, i.e., a fused product between the amino acids 1 to 147 of Gal4 transcription factor and the amino acids 182 to 505 of human PPARγ2, was used. Furthermore, as a reporter vector, a firefly luciferase containing five copies of Gal4 recognition sequence in the promoter region was used. Plasmid transfection to the cells was performed according to a method which uses jetPEI (trade name, manufactured by Funakoshi Co., Ltd., Tokyo, Japan). Furthermore, β-galactosidase expression vector was employed as an internal standard.
After the transfection of the cells, the medium was replaced with a DMEM medium (containing 1% serum) added with the compound, and the cells were further cultured for 16 hours. After that, the luciferase activity and β-galactosidase activity in the cell lysis solution were measured.
For the present test, dimethyl sulfoxide (DMSO) was used for dissolution and dilution of the test compounds, and during the cell treatment, the DMSO concentration in DMEM medium (containing 1% serum) was adjusted to 0.1%. As a positive compound, rosiglitazone (trade name, manufactured by ALEXIS Corporation, Switzerland) was used. The luciferase activity (%) of the test compounds (1 to 30 μmol/L) was calculated when the luciferase activity of rosiglitazone (3 to 10 μmol/L) is 100% and the luciferase activity in the absence of the test compound is 0%. The 50% effective concentration of the test compound (EC50, 50% effect concentration) was calculated by using SAS Preclinical Package Ver5.0 (trade name, manufactured by SAS institute Japan Co., Tokyo, Japan), which is a statistical analysis program.

The target in test [1] is T2, angiotensin II type 1 receptor (Oryctolagus cuniculus, UniProt P34976).
T2 construct: By using a specimen of isolated rabbit blood vessels; from tissue; host or cells: rabbit (New Zealand White) thoracic aorta ring
T2 sequence (P34976 1-359): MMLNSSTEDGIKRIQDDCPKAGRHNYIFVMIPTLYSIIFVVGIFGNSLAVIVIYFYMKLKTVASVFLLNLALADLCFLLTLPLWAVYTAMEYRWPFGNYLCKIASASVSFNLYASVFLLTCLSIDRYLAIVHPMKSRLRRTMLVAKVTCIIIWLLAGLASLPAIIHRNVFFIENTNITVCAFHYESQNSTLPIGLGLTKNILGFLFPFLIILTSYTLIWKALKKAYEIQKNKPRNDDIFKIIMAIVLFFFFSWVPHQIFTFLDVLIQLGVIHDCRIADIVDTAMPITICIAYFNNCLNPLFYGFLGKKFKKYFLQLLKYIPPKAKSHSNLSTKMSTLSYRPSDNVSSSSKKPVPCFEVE
The test can be described thus: Angiotensin II antagonistic activity in isolated rabbit blood vessels (thoracic aorta ring contraction). The settings on record: angiotensin II (10 nM)-induced contraction. The procedure: By using a specimen of isolated rabbit blood vessels, antagonistic activity of the compounds of the invention against angiotensin II type 1 receptor was estimated from a dose-response curve of angiotensin II-induced blood vessel contraction.
During the measurement, the inside temperature of the magnus bath was maintained at 37° C. and the bath was continuously ventilated with a sufficient amount of mixed gas (95% O2 and 5% CO2). The angiotensin II-induced contraction was converted into a relative value (%) that is based on the angiotensin II (10 nM)-induced contraction in the absence of the compounds of each example. From the concentration-response curve obtained therefrom, 50% inhibition concentration (IC50 value) was calculated by using SAS Preclinical Package Ver5.0 (trade name, manufactured by SAS institute Japan Co., Tokyo, Japan), which is a statistical analysis program.

What is called EC50 is the midpoint of the concentration-response curve. For `CCCCc1nc(C)n(-c2ccccn2)c(=O)c1Cc1cc(CCC)c(OC(c2ccccc2)c2noc(=O)[nH]2)c(CCC)c1` (stereo not drawn) [Example 5, 3-[[4-[{4-butyl-2-methyl-6-oxo-1-(pyridin-2-yl)-1,6-dihydropyrimidin-5-yl}methyl]-2,6-dipropylphenoxy](phenyl)methyl]-1,2,4-oxadiazol-5(4H)-one], on human PPARγ2, the EC50 came to 1190 nM and the Emax was 35.1%. For the molecule `CCCCc1nc(C)n(-c2ccccn2)c(=O)c1Cc1cc(CCC)c(OC(c2ccccc2)c2nnn[nH]2)c(CCC)c1` (stereo not drawn) [Example 4, 6-butyl-2-methyl-5-[4-{phenyl(1H-tetrazol-5-yl)methoxy}-3,5-dipropylbenzyl]-3-(pyridin-2-yl)pyrimidin-4(3H)-one], on human PPARγ2, the EC50 was 1720 nM.

Regarding `CCCCc1nc(C)n(-c2ncc(OC)cn2)c(=O)c1Cc1cc(CCC)c(OC(C(=O)O)c2ccc(Cl)cc2)c(CCC)c1` (stereo not drawn) [Example 18, 2-[4-[{4-butyl-1-(5-methoxypyrimidin-2-yl)-2-methyl-6-oxo-1,6-dihydropyrimidin-5-yl}methyl]-2,6-dipropylphenoxy]-2-(4-chlorophenyl)acetic acid], at human PPARγ2, the EC50 came out at 1400 nM and the Emax stood at 49.1%. The like results for `CCCCc1nc(C)n(-c2ncc(OCc3ccccc3)cn2)c(=O)c1Cc1cc(CCC)c(OC(C(=O)O)c2ccccc2)c(CCC)c1` (stereo not drawn) [Example 19, 2-[4-[[1-[5-(benzyloxy)pyrimidin-2-yl]-4-butyl-2-methyl-6-oxo-1,6-dihydropyrimidin-5-yl]methyl]-2,6-dipropylphenoxy]-2-phenylacetic acid] were, in that order, 650 nM and 49.9%. As to `CCCCc1nc(C)n(-c2ccccn2)c(=O)c1Cc1cc(CCC)c(OC(C(=O)O)c2ccccc2OC)c(CCC)c1` (stereo not drawn) [Example 10, 2-[4-[{4-butyl-2-methyl-6-oxo-1-(pyridin-2-yl)-1,6-dihydropyrimidin-5-yl}methyl]-2,6-dipropylphenoxy]-2-(2-methoxyphenyl)acetic acid], at human PPARγ2, the EC50 came out at 3290 nM and the Emax is 25.6%.

As to `CCCCc1nc(C)n(-c2ccccn2)c(=O)c1Cc1cc(CCC)c(OC(c2nnn[nH]2)c2ccccc2Cl)c(CCC)c1` (stereo not drawn) [Example 11, 6-butyl-5-[4-{(2-chlorophenyl)(1H-tetrazol-5-yl)methoxy}-3,5-dipropylbenzyl]-2-methyl-3-(pyridin-2-yl)pyrimidin-4(3H)-one], the EC50 on human PPARγ2 came out at 2630 nM. Still for that read-out and setting: to `CCCCc1nc(C)nc(OCc2ccccc2)c1Cc1cc(CCC)c(OC(C(=O)O)c2ccccc2)c(CCC)c1` (stereo not drawn) [Example 29] belongs 2490 nM.

Regarding `CCCCc1nc(CCc2ccc(CC)cn2)[nH]c(=O)c1Cc1cc(CCC)c(OC(C(=O)O)c2ccccc2)c(CCC)c1` (stereo not drawn) [Example 31], the EC50 on human PPARγ2 was 1210 nM. Usually IC50 stands for the midpoint of a concentration-inhibition curve. Higher therefore signals weaker potency. In test [1], `CCCCc1nc(C)n(-c2ncc(O)cn2)c(=O)c1Cc1cc(CCC)c(OC(C(=O)O)c2ccccc2)c(CCC)c1` (stereo not drawn) [Example 27, 2-[4-[{4-butyl-1-(5-hydroxypyrimidin-2-yl)-2-methyl-6-oxo-1,6-dihydropyrimidin-5-yl}methyl]-2,6-dipropylphenoxy]-2-phe nylacetic acid] registered an IC50 of 468 nM.

Molecule `CCCCc1nc(C)n(-c2ncc(OCC[S+](C)[O-])cn2)c(=O)c1Cc1cc(CCC)c(OC(C(=O)O)c2ccccc2)c(CCC)c1` (stereo not drawn) [Example 25] had an IC50 in test [1] of 76 nM.

Take `CCCCc1nc(C)n(-c2ncc(OC)cn2)c(=O)c1Cc1cc(CCC)c(OC(C(=O)O)c2ccccc2)c(CCC)c1` (single isomer, unassigned; (+)) [Example 17, (+)-2-[4-[{4-butyl-1-(5-methoxypyrimidin-2-yl)-2-methyl-6-oxo-1,6-dihydropyrimidin-5-yl}methyl]-2,6-dipropylphenoxy]-2-phenylacetic acid]: on human PPARγ2, the EC50 was found to be 3710 nM. Regarding `CCCCc1nc(C)n(-c2ccccn2)c(=O)c1Cc1cc(CCC)c(OC(C(=O)O)c2cccc(Cl)c2)c(CCC)c1` (stereo not drawn) [Example 8, 2-[4-[{4-butyl-2-methyl-6-oxo-1-(pyridin-2-yl)-1,6-dihydropyrimidin-5-yl}methyl]-2,6-dipropylphenoxy]-2-(3-chlorophenyl)acetic acid], on human PPARγ2, the EC50 turned out to be 2020 nM and the Emax was 41.4%. As to `CCCCc1nc(C)n(-c2ncc(OCCSC)cn2)c(=O)c1Cc1cc(CCC)c(OC(C(=O)O)c2ccccc2)c(CCC)c1` (stereo not drawn) [Example 24, 2-[4-[[4-butyl-2-methyl-1-[5-{2-(methylthio)ethoxy}pyrimidin-2-yl]-6-oxo-1,6-dihydropyrimidin-5-yl]methyl]-2,6-dipropylphenoxy]-2-phenylacetic acid], on human PPARγ2, the EC50 is 1340 nM and the Emax is 39.8%. With `CCCCc1nc(C)n(-c2ncc(OCCS(C)(=O)=O)cn2)c(=O)c1Cc1cc(CCC)c(OC(C(=O)O)c2ccccc2)c(CCC)c1` (stereo not drawn) [Example 26, 2-[4-[[4-butyl-2-methyl-1-[5-{2-(methylsulfonyl)ethoxy}pyrimidin-2-yl]-6-oxo-1,6-dihydropyrimidin-5-yl]methyl]-2,6-dipropylphenoxy]-2-phenylacetic acid], the midpoint of inhibition in test [1], the IC50, lay at 353 nM. With `CCCCc1nc(C)nc(OCCOC)c1Cc1cc(CCC)c(OC(C(=O)O)c2ccccc2)c(CCC)c1` (stereo not drawn) [Example 32, 2-[4-[{4-butyl-6-(2-methoxyethoxy)-2-methylpyrimidin-5-yl}methyl]-2,6-dipropylphenoxy]-2-phenylacetic acid], on human PPARγ2, the EC50 worked out at 2400 nM. Same read-out and setting: to `CCCCc1nc(C)n(-c2ccccn2)c(=O)c1Cc1cc(CCC)c(OC(C(=O)NS(C)(=O)=O)c2ccccc2)c(CCC)c1` (stereo not drawn) [Example 6, 2-[4-[{4-butyl-2-methyl-6-oxo-1-(pyridin-2-yl)-1,6-dihydropyrimidin-5-yl}methyl]-2,6-dipropylphenoxy]-N-(methylsulfonyl)-2-phenyl acetoamide] belongs 3190 nM. In the case of `CCCc1cc(Cc2c(CCC)nc(C)n(-c3ccccn3)c2=O)cc(CCC)c1OC(C(=O)O)c1ccccc1` (stereo not drawn) [Example 2, 2-[4-[{2-methyl-6-oxo-4-propyl-1-(pyridin-2-yl)-1,6-dihydropyrimidin-5-yl}methyl]-2,6-dipropylphenoxy]-2-phenylacetic acid], at human PPARγ2, the concentration giving a half-maximal response (EC50) was 3910 nM and the Emax turned out to be 25.2%. As for `CCCc1cc(Cc2c(CC)nc(C)n(-c3ccccn3)c2=O)cc(CCC)c1OC(C(=O)O)c1ccccc1` (stereo not drawn) [Example 3], the EC50 on human PPARγ2 was 3520 nM.

Turning to `CCCCc1nc(C)n(-c2ncc(OCCCC(N)=O)cn2)c(=O)c1Cc1cc(CCC)c(OC(C(=O)O)c2ccccc2)c(CCC)c1` (stereo not drawn) [Example 23], 67 nM corresponded to half-maximal inhibition in test [1] (IC50).

For the molecule `CCCCc1nc(C)n(-c2ccc(OCC)cc2)c(=O)c1Cc1cc(CCC)c(OC(C(=O)O)c2ccccc2)c(CCC)c1` (stereo not drawn) [Example 13], at human PPARγ2, the EC50 amounted to 480 nM and the Emax amounted to 42.9%. Taken in the same sequence, the figures for `CCCCc1nc(C)n(-c2ccccn2)c(=O)c1Cc1cc(CCC)c(OC(C(=O)O)c2ccccc2Cl)c(CCC)c1` (stereo not drawn) [Example 7] were 3460 nM and 23.3%.

(Values after patent publication US20120046308A1, “NOVEL ALPHA-PHENOXYBENZENEACETIC ACID DERIVATIVE AND PHARMACEUTICAL PREPARATION COMPRISING SAME” (KOWA COMPANY, LTD., priority 2009, published 2012).)
